Our source for the Selectivity ratio values is ChEMBL document CHEMBL4742400, “Protein kinase mkk4 inhibitors for promoting liver regeneration or reducing or preventing hepatocyte death” (2019).

The species named for experiment [1] is Homo sapiens. Nature of the experiment: Selectivity index, ratio of inhibition of full length human JNK1 (M1 to Q384 residues) expressed in mammalian expression system assessed as residual percent of control binding at 100 nM relative to control to inhibition of partial length human MKK4 (S84 to D399 residues) expressed in mammalian expression system assessed as residual percent of control binding at 100 nM relative to control.

The species entered for experiment [2] is Homo sapiens. Briefly: Selectivity index, ratio of inhibition of full length human MKK7 (M1 to R419 residues) expressed in mammalian expression system assessed as residual percent of control binding at 100 nM relative to control to inhibition of partial length human MKK4 (S84 to D399 residues) expressed in mammalian expression system assessed as residual percent of control binding at 100 nM relative to control.

The species named for experiment [3] is Homo sapiens. Briefly: Selectivity index, ratio of inhibition of B-raf (unknown origin) to inhibition of partial length human MKK4 (S84 to D399 residues) expressed in mammalian expression system assessed as residual percent of control binding at 100 nM relative to control.

Take `CCCS(=O)(=O)Nc1ccc(F)c(C(=O)c2n[nH]c3ncc(-c4cccc(C)c4)cc23)c1F`: the Selectivity ratio in the experiment filed under Homo sapiens [1] was 3; in the experiment listed under Homo sapiens [2] it was 3; in the experiment filed under Homo sapiens [3] it was below 3.

Consider `CCCS(=O)(=O)Nc1ccc(F)c(C(=O)c2n[nH]c3ncc(-c4ccc(N(C)C)cc4)cc23)c1F`, for which the Selectivity ratio was above 30 in the experiment filed under Homo sapiens [1], above 30 in the experiment filed under Homo sapiens [2] and below 3 in the experiment listed under Homo sapiens [3].

Consider `CCCS(=O)(=O)Nc1ccc(F)c(C(=O)c2n[nH]c3ncc(-c4ccccc4)cc23)c1F`, for which the Selectivity ratio is 10 in the experiment filed under Homo sapiens [1], above 30 in the experiment listed under Homo sapiens [2] and 10 in the experiment filed under Homo sapiens [3].

For the molecule `CCCS(=O)(=O)Nc1ccc(F)c(C(=O)c2n[nH]c3ncc(-c4ccc(C(C)C)cc4)cc23)c1F`, the Selectivity ratio in the experiment listed under Homo sapiens [1], in the experiment listed under Homo sapiens [2] and in the experiment listed under Homo sapiens [3] was 3 each time.

Turning to `CCCS(=O)(=O)Nc1ccc(F)c([S+]([O-])c2n[nH]c3ncc(-c4ccc(Cl)cc4)cc23)c1F` (centres undefined), the Selectivity ratio in the experiment listed under Homo sapiens [1], in the experiment filed under Homo sapiens [2] and in the experiment listed under Homo sapiens [3] was below 3 each time.

For `CCCS(=O)(=O)Nc1ccc(F)c(C(=O)c2n[nH]c3ncc(-c4ccc(S(=O)(=O)NCC(O)CO)cc4)cc23)c1F` (centres undefined), the Selectivity ratio in the experiment listed under Homo sapiens [1] was above 30; in the experiment listed under Homo sapiens [2] it was above 30; in the experiment filed under Homo sapiens [3], below 3.

On to `CCCS(=O)(=O)Nc1ccc(F)c(C(=O)c2n[nH]c3ncc(-c4ccc(C)cc4)cc23)c1F`, for which the values for the Selectivity ratio in the experiment listed under Homo sapiens [1], in the experiment listed under Homo sapiens [2] and in the experiment listed under Homo sapiens [3] were 10, 10 and below 3, respectively.

For `CCCS(=O)(=O)Nc1ccc(F)c(C(=O)c2n[nH]c3ncc(-c4ccccc4F)cc23)c1F`, the figures for the Selectivity ratio in the experiment listed under Homo sapiens [1], in the experiment filed under Homo sapiens [2] and in the experiment filed under Homo sapiens [3] were above 30, above 30 and 10, respectively.

Take `CCCS(=O)(=O)Nc1ccc(F)c(Cc2n[nH]c3ncc(-c4ccc(Cl)cc4)cc23)c1F`: the Selectivity ratio in the experiment filed under Homo sapiens [1], in the experiment listed under Homo sapiens [2] and in the experiment listed under Homo sapiens [3] was below 3 throughout.

Consider `CCCS(=O)(=O)Nc1ccc(F)c(C(=O)c2n[nH]c3ncc(-c4cccc(N)c4)cc23)c1F`, for which the results for the Selectivity ratio in the experiment listed under Homo sapiens [1], in the experiment filed under Homo sapiens [2] and in the experiment filed under Homo sapiens [3] were above 30, above 30 and below 3, respectively.

For the molecule `CCCS(=O)(=O)Nc1ccc(F)c(C(=O)c2n[nH]c3ncc(-c4ccc(C(C)(C)C)cc4)cc23)c1F`, the Selectivity ratio in the experiment filed under Homo sapiens [1], in the experiment filed under Homo sapiens [2] and in the experiment filed under Homo sapiens [3] was below 3 each time.

Take `CCCS(=O)(=O)Nc1ccc(F)c(Sc2n[nH]c3ncc(-c4ccc(Cl)cc4)cc23)c1F`: the Selectivity ratio in the experiment listed under Homo sapiens [1], in the experiment listed under Homo sapiens [2] and in the experiment filed under Homo sapiens [3] was below 3 throughout.

With `CCCS(=O)(=O)Nc1ccc(F)c(C(=O)c2n[nH]c3ncc(-c4cccc(O)c4)cc23)c1F`, the Selectivity ratio in the experiment listed under Homo sapiens [1] was 3; in the experiment filed under Homo sapiens [2], above 30; in the experiment listed under Homo sapiens [3], 3.

Turning to `CCCS(=O)(=O)Nc1ccc(F)c(C(=O)c2n[nH]c3ncc(-c4ccc(C)c(C)c4)cc23)c1F`, the Selectivity ratio in the experiment listed under Homo sapiens [1] is 3; in the experiment listed under Homo sapiens [2], 3; in the experiment filed under Homo sapiens [3], below 3.

With `CCCS(=O)(=O)Nc1ccc(F)c(C(=O)c2n[nH]c3ncc(-c4ccc(C(=O)NCC(O)CO)cc4)cc23)c1F` (centres undefined), the Selectivity ratio in the experiment filed under Homo sapiens [1] was above 30; in the experiment filed under Homo sapiens [2] it was above 30; in the experiment filed under Homo sapiens [3] it was below 3.

Regarding `CCCS(=O)(=O)Nc1ccc(F)c(C(=O)c2n[nH]c3ncc(-c4ccccc4O)cc23)c1F`, the Selectivity ratio in the experiment listed under Homo sapiens [1] amounted to 3; in the experiment listed under Homo sapiens [2] it was 10; in the experiment filed under Homo sapiens [3], 3.

On to `CCCS(=O)(=O)Nc1ccc(F)c(C(=O)c2n[nH]c3ncc(-c4ccc(O)cc4)cc23)c1F`, for which the Selectivity ratio in the experiment filed under Homo sapiens [1] is above 30; in the experiment filed under Homo sapiens [2], above 30; in the experiment listed under Homo sapiens [3], 10.

With `CCCS(=O)(=O)Nc1ccc(F)c(C(=O)c2n[nH]c3ncc(-c4cccc(OC)c4)cc23)c1F`, the values for the Selectivity ratio in the experiment filed under Homo sapiens [1], in the experiment listed under Homo sapiens [2] and in the experiment filed under Homo sapiens [3] were 10, 10 and 3, respectively.
